In brackets after ≈: the same amount, converted by molar mass. Like-named read-outs stand apart in the source and are kept apart here.
Legend:
[1] = tested on: T-47D; experiment: NCI single-dose growth inhibition screen; type: cell-based; settings: Homo sapiens, T47D; Breast Cancer T-47D; single dose 10^−5 M
[2] = tested on: SK-MEL-2; experiment: NCI single-dose growth inhibition screen; type: cell-based; settings: Homo sapiens; Melanoma SK-MEL-2; single dose 10^−5 M
[3] = tested on: RPMI-8226; experiment: NCI single-dose growth inhibition screen; type: cell-based; settings: Homo sapiens; Leukemia RPMI-8226; single dose 10^−5 M
[4] = tested on: MOLT-4; experiment: NCI single-dose growth inhibition screen; type: cell-based; settings: Homo sapiens; Leukemia MOLT-4; single dose 10^−5 M
[5] = tested on: UO-31; experiment: NCI single-dose growth inhibition screen; type: cell-based, human; settings: single dose 10^−5 M; for inhibition at 10 µM: Homo sapiens, UO-31, Renal Cancer UO-31; for Growth Inhibition (%): Renal Cancer UO-31
[6] = tested on: A498; experiment: NCI single-dose growth inhibition screen; type: cell-based, human; settings: single dose 10^−5 M; for inhibition at 10 µM: Homo sapiens, A498, Renal Cancer A498
[7] = tested on: SF-268; experiment: NCI single-dose growth inhibition screen; type: cell-based; settings: Homo sapiens; CNS Cancer SF-268; single dose 10^−5 M
[8] = tested on: IGROV1; experiment: NCI single-dose growth inhibition screen; type: cell-based; settings: Homo sapiens, IGROV-1; Ovarian Cancer IGROV1; single dose 10^−5 M
[9] = tested on: M14; experiment: NCI single-dose growth inhibition screen; type: cell-based; settings: Homo sapiens; Melanoma M14; single dose 10^−5 M
Procedure: Following the guidelines established by the drug evaluation department of the National Cancer Institute (NCI), USA, all target compounds 3a–l were examined against 60 cancer cell lines at a single concentration of 10 µM.
The anti-cancer potential of the tested compounds was evaluated at the National cancer institute (NCI), USA, against 9 panels of 60 various cell lines derived from nine human tumours available usually at NCI library. The procedures for the screening were described in details in NCI website (dttp://www.dtp.nci.nih.gov.) and were done according to NCI protocols[60] . The anticancer screening was carried out at single dose of 10^−5 M, NCI, Bethesda, USA. The results obtained as growth inhibition (%).

[10] = tested on: HCT-116; experiment: NCI single-dose growth inhibition screen; type: cell-based; settings: Homo sapiens; Colon Cancer HCT-116; single dose 10^−5 M
[11] = tested on: HOP-92; experiment: NCI single-dose growth inhibition screen; type: cell-based; settings: Homo sapiens; Non-Small Cell Lung Cancer HOP-92; single dose 10^−5 M
[12] = tested on: S. aureus ATCC 6538; experiment: Antibacterial screening, agar cup diffusion method; type: cell-based; settings: Staphylococcus aureus, ATCC6538; Gram + ve strain; read-out: Minimum inhibitory concentrations (MIC, µM) S. aureus ATCC 6538
Procedure: Anti-bacterial activity of the recently synthesized compounds 3a-k was evaluated at AUMC (Assiut University Mycological Centre), Assiut, Egypt. Assays were done against Gram-negative strains of K. pneumoniae (ATCC 100310, E. coli (ATCC 25922), Pseudomonas aeruginosa (ATCC 27853) and the Gram-positive S. aureus (ATCC 6538) strain utilizing standard agar cup diffusion method. The isolates from the four bacterial species examined were kept in TSB (Trypticase Soya Broth, Becton and Dickinson) with 10% glycerol at -70 °C and then subcultured on TSA (Trypticase Soya Agar, Becton and Dickinson) and TSB for 24 h at 37 °C former to inoculation. Bacterial isolates were then plated on sterile petri plates with 1 × 10^8 CFU/mL (0.5 McFarland turbidity) and 20 mL of Mueller Hinton Agar media (Oxoid) was then loaded. To ensure that the microorganisms were evenly dispersed, the plates were gently rotated before being left to harden on a level surface. Four equally spaced spherical-shaped wells (10 mm diameter) were painstakingly drilled using a sterilized cork bore after media solidification. All tested compounds under test underwent two-fold serial dilutions in a sequential manner. Three replications of 100 µL of each concentration were added to a well using a micropipette. Plates were then incubated for 24-hour at 37 °C. The average of the inhibition zones was then calculated. To determine the MICs, the natural logarithm of each diluted test substance’s concentration was plotted against the average area of the related inhibition zone. Following that, a regression line was created and the intercept on the ‘ln concentration” axis was determined, and the antilogarithm was calculated to indicate the MIC value[34],[63].

[13] = tested on: SF-539; experiment: NCI single-dose growth inhibition screen; type: cell-based; settings: Homo sapiens; CNS Cancer SF-539; single dose 10^−5 M
[14] = tested on: NCI-H460; experiment: NCI single-dose growth inhibition screen; type: cell-based; settings: Homo sapiens; Non-Small Cell Lung Cancer NCI-H460; single dose 10^−5 M
[15] = tested on: BT-549; experiment: NCI single-dose growth inhibition screen; type: cell-based; settings: Homo sapiens; Breast Cancer BT-549; single dose 10^−5 M
[16] = tested on: DU-145; experiment: NCI single-dose growth inhibition screen; type: cell-based; settings: Homo sapiens; Prostate Cancer DU-145; single dose 10^−5 M
[17] = tested on: HOP-62; experiment: NCI single-dose growth inhibition screen; type: cell-based; settings: Homo sapiens; Non-Small Cell Lung Cancer HOP-62; single dose 10^−5 M
[18] = tested on: CAKI-1; experiment: NCI single-dose growth inhibition screen; type: cell-based; settings: Homo sapiens; Renal Cancer CAKI-1; single dose 10^−5 M
[19] = tested on: MALME-3 M; experiment: NCI single-dose growth inhibition screen; type: cell-based; settings: Homo sapiens; Melanoma MALME-3 M; single dose 10^−5 M
[20] = tested on: A498 renal cancer cell line; experiment: cells; settings: Homo sapiens; for viability at 0.4 µM / viability at 1.6 µM / viability at 25 µM / viability at 100 µM: A498; for IC50: A498, read-out: In vitro cytotoxicity (IC50) A498 cell line (µM ± SEM)
[21] = tested on: SNB-19; experiment: NCI single-dose growth inhibition screen; type: cell-based; settings: Homo sapiens; CNS Cancer SNB-19; single dose 10^−5 M
[22] = tested on: UACC-62; experiment: NCI single-dose growth inhibition screen; type: cell-based; settings: Homo sapiens; Melanoma UACC-62; single dose 10^−5 M
[23] = tested on: SR; experiment: NCI single-dose growth inhibition screen; type: cell-based; settings: Homo sapiens; Leukemia SR; single dose 10^−5 M
[24] = tested on: UACC-257; experiment: NCI single-dose growth inhibition screen; type: cell-based; settings: Homo sapiens; Melanoma UACC-257; single dose 10^−5 M
[25] = tested on: MDA-MB-435; experiment: NCI single-dose growth inhibition screen; type: cell-based; settings: Homo sapiens; Melanoma MDA-MB-435; single dose 10^−5 M
[26] = tested on: SNB-75; experiment: NCI single-dose growth inhibition screen; type: cell-based, human; settings: single dose 10^−5 M; for Growth Inhibition (%): CNS Cancer SNB-75; for inhibition at 10 µM: Homo sapiens, SNB-75, CNS Cancer SNB-75
[27] = tested on: OVCAR-4; experiment: NCI single-dose growth inhibition screen; type: cell-based; settings: Homo sapiens; Ovarian Cancer OVCAR-4; single dose 10^−5 M
[28] = tested on: PC-3; experiment: NCI single-dose growth inhibition screen; type: cell-based; settings: Homo sapiens; Prostate Cancer PC-3; single dose 10^−5 M
[29] = tested on: TK-10; experiment: NCI single-dose growth inhibition screen; type: cell-based; settings: Homo sapiens; Renal Cancer TK-10; single dose 10^−5 M
[30] = tested on: E. coli ATCC 25,922; experiment: Antibacterial screening, agar cup diffusion method; type: cell-based; settings: read-out: Minimum inhibitory concentrations (MIC, µM) E. coli ATCC 25,922
[31] = tested on: SK-MEL-28; experiment: NCI single-dose growth inhibition screen; type: cell-based; settings: Homo sapiens; Melanoma SK-MEL-28; single dose 10^−5 M
[32] = tested on: HS 578T; experiment: NCI single-dose growth inhibition screen; type: cell-based; settings: Homo sapiens; Breast Cancer HS 578T; single dose 10^−5 M
[33] = tested on: NCI-H522; experiment: NCI single-dose growth inhibition screen; type: cell-based; settings: Homo sapiens; Non-Small Cell Lung Cancer NCI-H522; single dose 10^−5 M
[34] = Escherichia coli, ATCC25, Gram –ve strain

SMILES | inhibition at 10 µM [1] | inhibition at 10 µM [2] | inhibition at 10 µM [3] | inhibition at 10 µM [4] | inhibition at 10 µM [5] | inhibition at 10 µM [7] | inhibition at 10 µM [8] | inhibition at 10 µM [9] | inhibition at 10 µM [10] | inhibition at 10 µM [11] | MIC [12] | inhibition at 10 µM [13] | inhibition at 10 µM [14] | inhibition at 10 µM [15] | inhibition at 10 µM [16] | inhibition at 10 µM [17] | inhibition at 10 µM [18] | inhibition at 10 µM [19] | viability at 0.4 µM [20] | viability at 1.6 µM [20] | further results
O=C(O)c1cn(C2CC2)c2cc(N3CCN(C(=O)CCCN4C(=O)CSC4=O)CC3)c(F)cc2c1=O [3 L, 1-Cyclopropyl-7-(4-(4-(2,4-dioxothiazolidin-3-yl)butanoyl)piperazin-1-yl)-6-fluoro-4-oxo-1,4-dihydroquinoline-3-carboxylic acid] | < 0% | < 0% | 6% | < 0% | 42% | 15.1% | 15.3% | < 0% | < 0% | 0.7% | > 20 µM | 3.3% | 0% | 4.8% | 8.3% | 16.8% | 22.7% | < 0% | 92.2% | 80.2% | Growth Inhibition (%) [5]: 41.0%; inhibition at 10 µM [6]: 45.1%; Growth Inhibition (%) ([6]; Renal Cancer A498): 45.1%; viability at 25 µM [20]: 59.6%; viability at 100 µM [20]: 49.1%; IC50 [20]: 80.7 ± 4.55 µM; inhibition at 10 µM [21]: 0%; inhibition at 10 µM [22]: 8.4%; inhibition at 10 µM [23]: < 0%; melting point: 230 °C; inhibition at 10 µM [24]: < 0%; inhibition at 10 µM [25]: < 0%; Growth Inhibition (%) [26]: 51.1%; inhibition at 10 µM [26]: 51.1%; inhibition at 10 µM [27]: 19.2%; inhibition at 10 µM [28]: 2.4%; inhibition at 10 µM [29]: 28.7%; MIC [30, 34]: > 20 µM; inhibition at 10 µM [31]: 49.5%
COc1ccc(C=C2SC(=O)N(CCCC(=O)N3CCN(c4cc5c(cc4F)c(=O)c(C(=O)O)cn5C4CC4)CC3)C2=O)cc1 [3e, 1-cyclopropyl-6-fluoro-7-[4-[4-[5-[(4-methoxyphenyl)methylene]-2,4-dioxo-thiazolidin-3-yl]butanoyl]piperazin-1-yl]-4-oxoquinoline-3-carboxylic acid] | 0.6% | 6.5% | < 0% | < 0% | 18.5% | 2.3% | < 0% | < 0% | 0% | 8.3% | > 20 µM | 6.5% | 0% | 10.3% | < 0% | < 0% | 5.5% | 2.9% | 102% | 91.7% | inhibition at 10 µM [6]: 32%; inhibition at 10 µM [32]: 2.4%; viability at 25 µM [20]: 69.4%; viability at 100 µM [20]: 56.2%; inhibition at 10 µM [21]: 3.8%; inhibition at 10 µM [22]: 7%; inhibition at 10 µM [23]: 4.3%; inhibition at 10 µM [24]: 19.7%; inhibition at 10 µM [25]: < 0%; inhibition at 10 µM [26]: 12.6%; inhibition at 10 µM [33]: 25.7%; inhibition at 10 µM [27]: < 0%; inhibition at 10 µM [28]: < 0%; inhibition at 10 µM [29]: 11.3%; MIC [30, 34]: 1.94 to 2.6 µM (≈ 1.23 to 1.65 µg/mL); MIC ([30]; Gram –ve strain): 1.94 µM (≈ 1.23 µg/mL); inhibition at 10 µM [31]: < 0%
O=C(O)c1cn(C2CC2)c2cc(N3CCN(C(=O)CCCN4C(=O)S/C(=C\c5ccc([N+](=O)[O-])cc5)C4=O)CC3)c(F)cc2c1=O [3k] | < 0% | < 0% | 8.7% | < 0% | 42% | 13.3% | 15.9% | < 0% | < 0% | 0.2% | > 20 µM | 6% | < 0% | 1% | 7% | 19.7% | 19.5% | < 0% | 103% | 93.1% | Growth Inhibition (%) [5]: 41.1%; viability at 25 µM [20]: 72.6%; viability at 100 µM [20]: 60.5%; IC50 [20]: > 150 µM; inhibition at 10 µM [21]: < 0%; inhibition at 10 µM [22]: 2%; inhibition at 10 µM [23]: 9.7%; melting point: 299 to 300 °C; inhibition at 10 µM [24]: < 0%; inhibition at 10 µM [25]: < 0%; Growth Inhibition (%) [26]: 42.5%; inhibition at 10 µM [26]: 42.5%; inhibition at 10 µM [27]: 13.7%; inhibition at 10 µM [28]: < 0%; inhibition at 10 µM [29]: 33.5%; MIC [30, 34]: 0.25 µM (≈ 0.162 µg/mL); inhibition at 10 µM [31]: < 0%
